Values quoted from earlier work, collected in patent US20260248820A1, “USES OF HYDROGENATED CANNABIDIOL (H4CBD) AND ADVANCED METABOLIC SYNDROME” (The Regents of the University of California, priority 2022, published 2026).

Key:
[1] = rats without underlying metabolic dysfunction; cited from earlier work
[2] = system: endocannabinoid receptors; conditions: cited from earlier work
rodents = conditions: cited from earlier work
[3] = system: diet-induced obese (DIO) and non-obese diabetic mice; conditions: cited from earlier work
[4] = clinical; cited from earlier work
PTZ-induced seizure = conditions: rats; cited from earlier work

SMILES | Body mass gain [1] | Affinity for the endocannabinoid receptors responsible for cannabis intoxication [2] | Documented toxicity (rodents) | Incidence of diabetes [3] | Effects of high doses administered clinically [4] | Reduction of PTZ-induced seizure frequency and severity (PTZ-induced seizure)
C=C(C)[C@@H]1CCC(C)=C[C@H]1c1c(O)cc(CCCCC)cc1O [CBD, Cannabidiol] | inhibit body mass gain | little affinity | > 600 mg/kg | reduced the incidence of diabetes | anorexic and diarrheal effects | –
CCCCCc1cc(O)c([C@@H]2C=C(C)CC[C@H]2C(C)C)c(O)c1 [H2CBD, dihydrocannabidiol] | – | – | – | – | – | equal effectiveness to that of CBD
